Legend:
Cav1−/− mice [1] = assay: RVSP in Cav1−/− mice with PH; format: in vivo, mouse; conditions: 8 month old Cav1−/− mice; 1 mg/ml in drinking water for 5 wk
Procedure: RVSP was determined as follows. Briefly, following anesthesia, mice were prepared for catheterization. A 1.4 F pressure transducer catheter (Millar Instruments) was carefully inserted via the right external jugular vein into the right ventricle to obtain measurements of RVSP using the Acknowledge software (Biopac Systems, Inc.). To determine lung vascular resistance, mice were anesthetized and prepared for perfusion. Pulmonary arterial (Ppa) and venous (Pv) pressures were monitored continuously through the pulmonary arterial and left atrial cannula, which were connected to a pressure transducer. […] Ppa was measured at steady-state and was plotted against the flow, which was measured by weighing the effluent collected over a one-minute period. […]
To determine whether pharmacological inhibition of eNOS in Cav1^−/− mice can reverse PH, we administered N-Nitro-L-Arginine Methyl Ester (L-NAME), a NOS inhibitor, to Cav1^−/− mice following onset of PH. […] Data are expressed as mean±SD (n=5-7). *, P=0.023 WT versus Cav1^−/−;**, P=0.015 Cav-L versus Cav1^−/−; #, P>0.5 Cav-D versus Cav1^−/−. […] Data are expressed as mean±SD (n=5-7). *, P=0.002 WT versus Cav1^−/−; **, P=0.013 Cav-L versus Cav1^−/−; #, P=0.8 Cav-D versus Cav1^−/−.
Hemodynamic Measurements. RVSP was determined with a 1.4 F pressure transducer catheter (Millar Instruments) and the Acknowledge software (Biopac Systems, Inc.). […]

Cav1−/− mice [2] = assay: Lung histology and muscularized distal pulmonary arteries in Cav1−/− mice; format: in vivo, mouse; conditions: 8 month old Cav1−/− mice; 1 mg/ml in drinking water for 5 wk
Procedure: Following PBS perfusion, the lung tissues were fixed for 5 min by instillation of 10% PBS-buffered formalin through trachea catheterization at a transpulmonary pressure of 15 cm H2O. After tracheal ligation, harvested lungs were fixed with 10% PBS-buffered formalin overnight at […] with agitation. After paraffin processing, the tissues were cut into semithin 4 to […] thick, and stained with either H & E for histological analysis or an antibody against nitrotyrosine (Upstate Biotechnology) for immunohistochemistry. Immunostaining was developed with a Vectastain ABC kit (Vector Laboratories). Histology and Imaging. Lung tissues were fixed and processed for H & E staining and immunofluorescent staining. for 5 min by instillation of 10% PBS-buffered formalin through trachea catheterization at a transpulmonary pressure of 15 cm H2O, and then overnight at 4° C. with agitation. After paraffin processing, the tissues were cut into semi-thin 4 to […] thick, and stained with H & E for histological analysis. For immunofluorescent staining, antigen retrieval was performed by incubating the slides in 10 mM sodium citrate (pH 6.0) at 95° C. for 10 min. […] The anti-a-SMA-positive pulmonary arterial vessels per field (200×) were counted based on the diameter (<40 μm versus>40 μm). Twenty fields per section were randomly identified and counted. […]

human PKG-1a = assay: Myc-tagged PKG-1a tyrosine mutants treated with peroxynitrite: kinase assay and tyrosine nitration; format: biochemical; conditions: in contrast to wildtype PKG-1
Procedure: Identification of Nitrated Tyrosine Residues of PKG-1a. Tyrosine residue was mutated to Phenylalanine by site-directed mutagenesis following manufacture's instruction (Stratagene). Myc-tagged wild-type and mutant PKG-1a were overexpressed in human lung microvascular endothelial cells and cell lysates were then immunoprecipitated with anti-Myc for 4 hr at RT. […] Following 14 min incubation in 50 mM K2HPO4 buffer at RT, kinase activity was then measured as described above.
(§1) To address the role of peroxynitrite in the mechanism of the observed impairment of PKG activity, we treated human pulmonary artery smooth muscle cells with 3-morpholinosydnonimine (SIN-1), the superoxide and NO donor that forms peroxynitrite simultaneously (30). […] FIG. 9A relates to dose-dependent impairment of PKG activity by peroxynitrite. Purified […] (Promega) was incubated with peroxynitrite at indicated concentrations for 14 min at RT or with DETA NONOate (NONOate) for 30 min in dark at RT. Kinase activity was then assayed. Data is expressed mean+/−SD (n=3). *, P<0.05 versus control (0 μM). FIG. 9B relates to screening of PKG-1a mutants with in vitro kinase assay. […] PKG activity was expressed as pmoles/min/μg cell lysates. […] Data are expressed as mean±SD (n=3), *, P<0.05 versus either PKG-1a mutant. […]

purified PKG-1 = target: T1, purified PKG-1 (Bos taurus, UniProt P00516); assay: In vitro kinase assay of purified PKG-1 after peroxynitrite or DETA NONOate; format: biochemical; conditions: peroxynitrite at indicated concentrations, 14 min at RT
T1 construct: purchased Promega
T1 sequence (P00516 1-671): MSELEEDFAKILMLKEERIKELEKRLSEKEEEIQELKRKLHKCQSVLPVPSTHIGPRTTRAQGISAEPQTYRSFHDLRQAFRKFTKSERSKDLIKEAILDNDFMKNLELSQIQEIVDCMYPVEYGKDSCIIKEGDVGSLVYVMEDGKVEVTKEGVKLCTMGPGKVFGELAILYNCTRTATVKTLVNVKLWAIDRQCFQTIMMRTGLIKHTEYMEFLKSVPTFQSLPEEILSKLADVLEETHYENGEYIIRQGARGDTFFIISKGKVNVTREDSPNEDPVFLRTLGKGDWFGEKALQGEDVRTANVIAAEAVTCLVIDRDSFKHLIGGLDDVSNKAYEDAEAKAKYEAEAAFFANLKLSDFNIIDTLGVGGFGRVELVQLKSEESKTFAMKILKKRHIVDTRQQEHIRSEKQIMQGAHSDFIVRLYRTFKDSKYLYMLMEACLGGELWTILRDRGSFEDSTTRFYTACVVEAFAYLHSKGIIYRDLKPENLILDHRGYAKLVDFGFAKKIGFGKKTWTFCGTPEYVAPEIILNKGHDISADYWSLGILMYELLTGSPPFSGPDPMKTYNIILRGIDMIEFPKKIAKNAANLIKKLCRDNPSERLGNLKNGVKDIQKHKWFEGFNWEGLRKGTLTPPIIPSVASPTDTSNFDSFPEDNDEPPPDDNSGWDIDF
Procedure: PKG Kinase Assay. In vitro activity of PKG was determined by measuring the transfer of the [g-^32P] phosphate group of ATP to the specific PKG substrate, BPDEtide (Calbiochem) in the absence or presence of exogenous 2.5 mM cGMP as described in Example 13. PKG activity is expressed as picmoles of ^32P incorporated into PKG substrate per min per microgram protein.
as §1, with “assay. At 48 hr post-transfection, myc-tagged WT and PKG-1a mutants were immunoprecipitated with anti-myc beads and aliquoted for incubation with either peroxynitrite (100 μM) or the same amount of 0.1 N NaOH only (CTL).” for “assay.”

PKG activity following peroxynitrite treatment (human PKG-1a; PKG-1a with mutation of tyrosine residue 345 or 549, peroxynitrite 100 μM)	Tyrosine nitration following peroxynitrite treatment (human PKG-1a; PKG-1 mutants (tyrosine 345 or 549), peroxynitrite 250 μM, 14 min at RT)	SMILES	RVSP (Cav1−/− mice [1])	Number of muscularized distal pulmonary arteries (Cav1−/− mice [2])	PKG activity (purified PKG-1)
		COC(=O)[C@H](N)CCCN=C(N)N[N+](=O)[O-] [D-NAME]	no effect	no effect	
no impairment of PKG activity	diminished tyrosine nitration	O=NOO [peroxynitrite]			decreased PKG activity in a concentration-dependent manner
